Laboratory results as given in patent publication US11298402B2, “Lysosomal degradation of lipids and proteins and method of use thereof” (University of Ottawa, priority 2015, dated 2022).

Experiments:
hepatic cells = test: Hepatic glucose uptake (fluorescent 2-NBDG assay); assay type: cell-based; conditions: transfected cells treated with EPA
[1] = system: McA-RH7777 cells (A18-C3); test: Immuno-EM of Arl8b organellar association; assay type: cell-based, rat; conditions: RFP-tagged Arl8b in transfected cells, 1 h post-EPA
Description: For immunogold labeling, pellets of cells cultured in media containing OA or EPA (0.4 mM) were fixed with 0.5% glutaraldehyde and 4% paraformaldehyde in 0.1 M phosphate buffer (pH 7.4) and dehydrated through a series of graded ethanol dilutions, and embedded in LR White acrylic resin (London Resin Company). Ultrathin sections (80 nm) were placed on Formvar-coated nickel grids. For post-embedding immunolabeling, the sections were incubated with an anti-Arl8b antibody (Fitzgerald) for 1 h. For ^RFPArl8b-transfected cells, that primary antibody used was anti-RFP (Abcam). After washing with 0.2 M sodium cacodylate buffer containing 0.1% calcium chloride, pH 7.4, the samples were incubated with the secondary antibody conjugated with 10-nm gold particles. To increase contrast, the ultrathin sections were stained with 2% uranyl acetate for 6 min and Reynold's lead for 5 min. The grids were examined with a Tecnai 12 120 kV TEM as described above.

C57BL/6 mice = test: Diet-induced fatty liver mouse model (high-fat-high-sucrose diet), Oil Red O; assay type: in vivo; conditions: adenovirus injected 1 day before HFHS diet for up to 4 days
Description: The respective Arl8b^T34N (DN), Arl8b^Q75L (DA), and Arl8b^WT constructs, along with empty virus (EV; control treatment) were injected into mice 1 day prior to feeding with a high fat diet for up to 4 days. The livers were stained with Oil Red O to determine the lipid contents, under the expression of various forms of Arl8b.
In these experiments, C57BL/6 mice were injected with adenovirus encoding different variants, namely Arl8b^T34N, Arl8b^Q75L, and Arl8b^WT. In these mice, expression of Arl8b proteins encoded by the adenoviral vectors lasts at least a few weeks. Thus, 1-day after viral injection, the mice were placed on a high-fat-high-sucrose (HFHS) diet for up to 4 days.

[2] = system: endogenous HOPS subunits (Vps41, Vps11, Vps39); test: Proximity ligation assay (in situ co-IP) of Arl8b with HOPS subunits; assay type: cell-based, rat; conditions: mCherry-tagged Arl8b
Description: (§1) In certain non-limiting examples described herein, McA-RH7777 cells stably expressing human apoB-100 and human apoC-III (designated A18-C3) were used for the studies. […] In addition, these studies, particularly those concerning EPA- or DHA-triggered lysosomal motility and CLD degradation, were also performed using primary rat hepatocytes. Transfection of plasmids encoding proteins of interest, or transfection of siRNA specific for silencing target gene expression, was achieved using the FuGENE HP Extreme reagent (Roche). Representative gene silencing siRNA sequences, which are not meant to be limiting, are described in Table 1, and plasmids encoding proteins of interest are described in Table 2. The effectiveness of siRNA silencing was verified by Western-blotting of cellular content of the target proteins, and by intracellular localization assay using siRNA-Tracker (Mirus Bioscience). Twenty-four h after plasmid transfection, or 48 h after siRNA transfection, the cells were cultured in lipid-rich media containing fetal bovine serum (20%) and OA (0.4 mM). The lipid-laden cells were switched to fresh media supplemented with OA or EPA (0.4 mM). In live imaging experiments, LipidTOX Red (Life Technologies) and LysoTracker (Life Technologies) were added to media prior to EPA treatment, to visualize lipid droplets and lysosomes, respectively. For visualizing peroxisomes, Peroxisome-GFP (Invitrogen) was introduced to the cells 24 h prior to experiments. Quantification of cell lipid contents was achieved either by direct mass measurement (HPTLC) and counting the number of lipid droplets using Image J Lipid Droplet Counter Plug-In, or indirectly by Western blot analysis of cellular content of ADRP. Secretion of apoB and TG-rich lipoprotein was determined by Western blot analysis and metabolic labeling. Mitochondrial β-oxidation was measured using MitoSOX Red (Life Technologies) in situ. Autophagic flux was determined by using Cyto-ID assay (Enzo Life Science) and by monitoring GFP-LC3 clustering in situ. Interaction of Arl8b and subunits of the HOPS complex was determined in situ by the proximity ligation assay (Olink Biosience). Cytoplasmic pH was measured using the cytosolic pHrodo indicator reagent (Invitrogen). Live imaging of fluorescent-tagged proteins was performed 1 h post-EPA treatment. Cells were also collected at the time of EPA treatment for transmission EM and tomography, as well as immuno-EM. For movies, cells were imaged at 60 sec intervals every 5 min, for a total of 30 min.
Cells were transfected with plasmids encoding RFP-tagged Arl8b^WT, Arl8b^Q75L, or Arl8b^T34N. The cells were treated with OA for 16 h (baseline condition as control). […] Quantification of signals was done in a total of 50 cells under each condition from 3 independent experiments.

[3] = system: McA-RH7777 cells (A18-C3); test: Live imaging of lysosomal motility and lysosome-CLD interaction (kiss-and-run); assay type: cell-based, rat; conditions: for effect on EPA-triggered lysosomal motility / lysosomal interaction with CLD: cells silenced, transfected or pre-treated (15 min) before EPA
Description: as §1
Cells were grown on 35-mm glass bottom dishes (Ibidi GmbH München, Germany) for 16 h in DMEM supplemented with FBS (20%) and OA (0.4 mM). Cells were imaged using a Zeiss 510 META laser scanning confocal microscope with a heated CO2-controlled stage (5% CO2 at 37° C.). Images were captured at a frame-rate of 30 frame/sec using a 63×. N.A.1.4 objective. Recommended laser lines and filter combinations were used for each dye. For visualization of lipid droplets, lysosomes, mitochondria, and mitochondrial β-oxidation, the respective reagents LipidTOX Red (Invitrogen), LysoTracker (Life Technology), MitoTracker (Life Technology), MitoSox Red (Invitrogen), and Peroxisome-GFP BacMam2.0 (Invitrogen) were introduced into the cells, according to manufacturers' recommendations, prior to EPA treatment.
Cells were cultured with lipid-rich media containing OA (0.4 mM) for 16 h. The lipid-laden cells were switched to fresh media containing EPA (0.4 mM) for 1 h, and the lysosomal movement towards lipid droplets was recorded by time-lapse microscopy. Fluorescent intensity of lysosomal signals at the periphery of selected individual lipid droplet was measured using Image J Live Intensity Profiler Plug-in^31-33 over a period of 40 sec. Quantification for each condition was carried out for 60 individual lipid droplets from three independent experiments. Constant threshold was applied to all of the images in each experiment.

[4] = system: McA-RH7777 cells stably expressing human apoB-100 and human apoC-III (A18-C3); assay type: cell-based; conditions: for effect on EPA-induced lipid degradation (CLD turnover): cells silenced, transfected or pre-treated, then EPA 0.4 mM, 6 h; for effect on lipid degradation when co-expressed with Arl8b^WT, Arl8b^Q75L or Arl8b^T34N: co-transfected cells, 6 h post-OA or -EPA
Description: as §1
The A18-C3 cells were cultured in DMEM (Invitrogen) supplemented with fetal bovine serum (20%), penicillin (50 U/mL), streptomycin (50 μg/mL, Invitrogen) and Geneticin/G418 (500 μg/mL, Gibco) at 37° C. in 5% CO2. Transfection was conducted when cells were 60-70% confluence. Appropriate plasmids were mixed with FuGENE HP extreme reagent (Roche Diagnostic), according to manufacturer's protocol, and incubated for 30 min. Twenty-four h after transfection, cells were switched to lipid-rich media containing OA (0.4 mM) for additional 16 h prior to imaging and biochemical analysis. In silencing experiments, appropriate siRNAs were transfected into cells using the X-treme GENE siRNA regent (Roche Diagnostic). Localization of siRNA in transfected cells in situ was carried out using the Cy5 Label IT-siRNA Tracker (Minis Bioscience #7213) according to manufacturer's protocol. Forty-eight h after transfection, cells were switched to lipid-rich media containing OA (0.4 mM) for additional 16 h prior to imaging and biochemical analysis.
Quantification of lipid droplets was carried out using confocal and differential interface contrast (DIC) microscopy. Lipid droplets were stained with LipidTOX Red (Invitrogen) before adding OA or EPA. All images were visualized using a 63× oil immersion objective lens. Z-series stacks were acquired with 0.2 μm steps. […]

Molecule	glucose uptake (hepatic cells)	organellar association (lysosome vs CLD) [1]	liver steatosis (Oil Red O) (C57BL/6 mice)	binding to endogenous HOPS subunits ([2]; cells treated with OA)	binding to endogenous HOPS subunits ([2]; upon addition of EPA)	duration of association between lysosomes and CLD (the on phase) ([3]; GFP-tagged Arl8b-expressing cells, EPA)	effect on EPA-triggered lysosomal motility / lysosomal interaction with CLD [3]	effect on EPA-induced lipid degradation (CLD turnover) [4]	effect on lipid degradation when co-expressed with Arl8b^WT, Arl8b^Q75L or Arl8b^T34N [4]
Arl8b^WT: wild-type ADP-ribosylation factor-like protein 8b, overexpressed from plasmid or adenovirus; tagged forms used	Low level of glucose uptake	dual presentation between lysosomes and CLD	steatosis became apparent	binds predominately to endogenous Vps41 and to a lesser extent Vps11	binds to all three Vps proteins examined	approximately 15 seconds	does not affect lysosomal motility	An increase in lipid degradation	–
Vps11: HOPS subunit overexpressed from plasmid (GFP-tagged) (protein) AAYLQWRRFVFFEKELVKEPLGNDGATPGAAPTSGPTASKFLCLPPGITVCDSGRGSLVFGDMEGQIWFLPRSLQLTGFQAYKLRVTHLYQLKQHNILASVGEDEEGINPLVKIWNLEKRDGGNPLCTRILPAIPGTEPTVVSCLTVHENLNFMAIGFTDGSVTLNKGDITRDRHSKTQILHKGSYPVTGLAFRQAGKTTHLFVVTTENVQSYIVSGKDYPRVELDTHGCGLRCSALSDPSQDLQFIVAGDECVYLYQPDERGPCFAFEGHKLIAHWFRGYLVIVSRDRKVSPKSEFTSRDSQNSDKQILNIYDLCNKFIAYSAVFEDVVDVLAEWGSLYVLTRDGRVHALQEKDTQTKLEMLFKKNLFEMAINLAKSQHLDSDGLAQIFMQYGDHLYSKGNHDGAVQQYIRTIGKLEPSYVIRKFLDAQRIHNLTAYLQTLHRQSLANADHTTLLLNCYTKLKDSSKLEEFIKTKSESEVHFDVETAIKVLRQAGYYSHALYLAENHAHHEWYLKIQLEDIKNYQEALRYIGKLPFEQAESNMKRYGKILMHHIPEQTTQLLKGLCTDYRPSLEGRGDREFPSCRANSEEFIPIFANNPRELKAFLEHMSEVQPDSPQGIYDTLLELRLQNWAHEKDPQAKEKLHAEAISLLKSGRFCDVFDKALVLCQMHDFQDGVLYLYEQGKLFQQIMHYHMQHEQYRQVIAVCERHGEQEPSLWEQALSYFARKEEDCKEYVAAVLRHIENKSLMPPLLVVQTLAHNSTATLSIIRDYLVQKLQKQSQQIAQDELRVRRYREETTRIRQEIQELKASPKIFQKTKCSICNSALELPSVHFLCGHSFHQHCFESYSESDADCPTCLPENRKVMDMIRAQEQKRDLHDQFQHQLKCSNDSFSVIADYFGRGVFNKLTLLTDPPTARLTPSLEAGLQRDLLMHSRRGT	–	–	–	–	–	–	enhanced lysosomal-CLD interaction	block lipid degradation	invariably blocks lipid degradation
Vps39: HOPS subunit overexpressed from plasmid (GFP-tagged) (protein, UniProt Q96JC1 1-886, looked up, GFP tag) Vam6/Vps39-like protein: MHDAFEPVPILEKLPLQIDCLAAWEEWLLVGTKQGHLLLYRIRKDVVPADVASPESGSCNRFEVTLEKSNKNFSKKIQQIHVVSQFKILVSLLENNIYVHDLLTFQQITTVSKAKGASLFTCDLQHTETGEEVLRMCVAVKKKLQLYFWKDREFHELQGDFSVPDVPKSMAWCENSICVGFKRDYYLIRVDGKGSIKELFPTGKQLEPLVAPLADGKVAVGQDDLTVVLNEEGICTQKCALNWTDIPVAMEHQPPYIIAVLPRYVEIRTFEPRLLVQSIELQRPRFITSGGSNIIYVASNHFVWRLIPVPMATQIQQLLQDKQFELALQLAEMKDDSDSEKQQQIHHIKNLYAFNLFCQKRFDESMQVFAKLGTDPTHVMGLYPDLLPTDYRKQLQYPNPLPVLSGAELEKAHLALIDYLTQKRSQLVKKLNDSDHQSSTSPLMEGTPTIKSKKKLLQIIDTTLLKCYLHTNVALVAPLLRLENNHCHIEESEHVLKKAHKYSELIILYEKKGLHEKALQVLVDQSKKANSPLKGHERTVQYLQHLGTENLHLIFSYSVWVLRDFPEDGLKIFTEDLPEVESLPRDRVLGFLIENFKGLAIPYLEHIIHVWEETGSRFHNCLIQLYCEKVQGLMKEYLLSFPAGKTPVPAGEEEGELGEYRQKLLMFLEISSYYDPGRLICDFPFDGLLEERALLLGRMGKHEQALFIYVHILKDTRMAEEYCHKHYDRNKDGNKDVYLSLLRMYLSPPSIHCLGPIKLELLEPKANLQAALQVLELHHSKLDTTKALNLLPANTQINDIRIFLEKVLEENAQKKRFNQVLKNLLHAEFLRVQEERILHQQVKCIITEEKVCMVCKKKIGNSAFARYPNGVVVHYFCSKEVNPADT	–	–	–	–	–	–	does not interfere with termination of lysosomal lipid droplet engulfment process and dissociation from CLD	promotes the process	promotes the process
